# Measurements published in the NIST ThermoML archive (doi:10.1016/j.fluid.2010.04.010).
# Numbers after ± are expanded uncertainties.
# Test: activity coefficient (dimensionless); of the first substance listed, at infinite dilution; xn = mol fraction of the nth substance listed
# Conditions: Liquid, Dilutor technique, x1 = 0
Structure (SMILES),activity coefficient (303.15 K),activity coefficient (313.15 K),activity coefficient (323.15 K),activity coefficient (333.15 K)
c1ccccc1 [benzene] + CCCCCC[n+]1cccc(C)c1.O=S(=O)([N-]S(=O)(=O)C(F)(F)F)C(F)(F)F,0.673 ± 0.004,0.683 ± 0.004,0.691 ± 0.004,0.701 ± 0.004
c1ccccc1 [benzene] + CCCCCCn1cc[n+](C)c1.F[B-](F)(F)F,1.385 ± 0.004,1.446 ± 0.004,1.562 ± 0.004,1.912 ± 0.004
c1ccccc1 [benzene] + CCCCn1cc[n+](C)c1.F[B-](F)(F)F,–,2.341 ± 0.004,2.246 ± 0.004,2.218 ± 0.004
C1=CCCCC1 [cyclohexene] + CCCCCC[n+]1cccc(C)c1.O=S(=O)([N-]S(=O)(=O)C(F)(F)F)C(F)(F)F,3.337 ± 0.004,3.205 ± 0.004,3.131 ± 0.004,3.018 ± 0.004
C1=CCCCC1 [cyclohexene] + CCCCCCn1cc[n+](C)c1.F[B-](F)(F)F,7.74 ± 0.004,7.632 ± 0.004,7.496 ± 0.004,7.052 ± 0.004
